The values below are quoted from earlier work in US7041819B2, “Halogenated calixpyrroles and uses thereof” (Board of Regents, The University of Texas System, priority 1996, dated 2006).

Bounds are passed on as bounds.

For data set [1] the following is noted: acetonitrile-d3 (0.5% v/v D2O) at 22° C.; Anzenbacher et al. 1999; cited from earlier work.
The conditions of data set [2]: acetonitrile-d3 (0.5% v/v D2O) at 22° C.; Anzenbacher et al. 1999; cited from earlier work. The source holds these as a separate data set.
For data set [3] the following is noted: acetonitrile-d3 (0.5% v/v D2O) at 22° C.; Anzenbacher et al. 1999; cited from earlier work. The source holds these as a separate data set.
The conditions of data set [4]: acetonitrile-d3 (0.5% v/v D2O) at 22° C.; Anzenbacher et al. 1999; cited from earlier work. This is another data set of the same source.

Turning to “meso-octamethylcalix[4]pyrrole [Compound 1]”, the “Affinity constant, F^−” value in data set [1] is >10 000 mol^−1. Also, the “Affinity constant, Cl^−” value in data set [2] is reported as 5 000 mol^−1. Moreover, the “Affinity constant, H2PO4^−” value in data set [3] is 1 300 mol^−1. Further, in data set [4], the “Affinity constant, DMSO-d6” value is on record as <5^c mol^−1.
